The source of these data is ChEMBL document CHEMBL1795203, “Synthesis and evaluation of highly potent GABA(A) receptor antagonists based on gabazine (SR-95531)” (Bioorg Med Chem Lett, 2011).

The structures appear in SMILES notation.

The test concerns the target T1, GABA-A receptor; alpha-1/beta-2/gamma-2 (Homo sapiens, UniProt P14867+P18507+P47870).
T1 sequence (P14867 whole entry): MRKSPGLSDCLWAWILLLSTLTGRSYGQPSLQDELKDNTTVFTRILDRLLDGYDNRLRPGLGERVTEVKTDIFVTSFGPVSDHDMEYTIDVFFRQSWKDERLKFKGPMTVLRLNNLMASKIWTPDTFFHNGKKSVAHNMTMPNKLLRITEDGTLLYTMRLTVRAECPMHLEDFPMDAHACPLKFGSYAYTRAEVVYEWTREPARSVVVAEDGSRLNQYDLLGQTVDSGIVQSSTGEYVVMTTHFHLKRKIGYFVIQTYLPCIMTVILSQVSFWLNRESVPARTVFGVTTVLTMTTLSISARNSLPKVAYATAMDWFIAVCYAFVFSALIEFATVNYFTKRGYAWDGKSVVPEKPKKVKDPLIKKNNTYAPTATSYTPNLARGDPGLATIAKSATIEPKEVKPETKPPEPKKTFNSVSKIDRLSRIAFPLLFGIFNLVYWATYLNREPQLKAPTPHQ
T1 sequence (P47870 whole entry): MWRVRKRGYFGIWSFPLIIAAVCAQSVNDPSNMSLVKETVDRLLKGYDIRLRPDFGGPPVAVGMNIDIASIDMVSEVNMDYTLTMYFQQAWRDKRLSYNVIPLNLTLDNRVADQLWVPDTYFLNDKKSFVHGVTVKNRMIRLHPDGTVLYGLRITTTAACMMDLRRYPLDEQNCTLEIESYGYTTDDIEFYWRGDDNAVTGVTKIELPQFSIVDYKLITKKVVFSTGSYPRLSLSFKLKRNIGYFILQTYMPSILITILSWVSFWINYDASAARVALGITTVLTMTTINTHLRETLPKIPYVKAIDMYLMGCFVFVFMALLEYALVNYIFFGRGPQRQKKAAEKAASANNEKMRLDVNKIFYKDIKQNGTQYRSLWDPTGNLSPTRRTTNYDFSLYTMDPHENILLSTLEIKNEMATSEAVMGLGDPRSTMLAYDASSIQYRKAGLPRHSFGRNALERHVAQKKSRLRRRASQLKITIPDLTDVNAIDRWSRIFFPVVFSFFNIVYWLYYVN
T1 sequence (P18507 whole entry): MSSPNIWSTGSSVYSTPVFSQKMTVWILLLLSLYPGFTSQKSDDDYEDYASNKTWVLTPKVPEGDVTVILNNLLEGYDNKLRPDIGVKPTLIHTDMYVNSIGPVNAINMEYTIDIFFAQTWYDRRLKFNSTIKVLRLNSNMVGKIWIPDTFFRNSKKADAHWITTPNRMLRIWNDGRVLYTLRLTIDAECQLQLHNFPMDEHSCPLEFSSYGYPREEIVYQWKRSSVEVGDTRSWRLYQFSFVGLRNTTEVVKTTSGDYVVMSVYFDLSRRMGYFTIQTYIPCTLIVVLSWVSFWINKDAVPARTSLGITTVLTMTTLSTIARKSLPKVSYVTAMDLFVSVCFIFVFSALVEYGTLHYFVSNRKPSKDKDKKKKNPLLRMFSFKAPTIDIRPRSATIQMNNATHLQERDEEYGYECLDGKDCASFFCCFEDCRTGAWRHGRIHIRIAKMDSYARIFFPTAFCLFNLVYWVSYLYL
Put plainly: Antagonist activity at human recombinant GABA A receptor alpha1beta2gamma2S expressed in HEK293 cells assessed as inhibition of GABA-induced current by patch clamp electrophysiology. Format: functional, cell-based. (In general: Patch clamp records ionic current or voltage across a cell membrane.)
With `N=c1ccc(-c2ccc(OCc3ccccc3)cc2)nn1CCCC(=O)O`, the IC50 worked out at 11 nM. Consider `COc1cccc(COc2ccc(-c3ccc(=N)n(CCCC(=O)O)n3)cc2)c1`, for which the IC50 was 7 nM. As to `N=c1ccc(-c2ccc(OCc3cccc([N+](=O)[O-])c3)cc2)nn1CCCC(=O)O`, the IC50 came to 3 nM.

In the case of `C#CCOc1ccc(-c2ccc(=N)n(CCCC(=O)O)n2)cc1`, the IC50 was 40 nM. `COc1ccc(-c2ccc(=N)n(CCCC(=O)O)n2)cc1` [GABAZINE]: the 50% inhibitory concentration (IC50) was 349 nM.

Broadly, the IC50 is the point on the concentration scale where inhibition reaches its midpoint.
